# Results reported in patent US4183954A, “Benzoic acid derivatives and therapeutic composition containing the same” (Seuref A.G., priority 1977, dated 1980).
# What was measured:
# [1] = system: experimental phlogistic reaction; assay: Antiphlogistic activity, experimental phlogistic reaction; type: in vivo; conditions: rats, intraperitoneal or oral, 50 mg/kg to 300 mg/kg
# Procedure: Intraperitoneal or oral administration of the test material at dosages within the range of from 50 mg/kg to 300 mg/kg inhibits the experimental phlogistic reaction induced in rats.
# [2] = system: anaphylactic reaction and death induced in guinea-pigs sensitized with horse serum; assay: Antianaphylactic activity; type: in vivo
# Procedure: Administration to […] of the test compound at a dosage of 60 mg/kg by the oral route or of 50 mg/kg by the intraperitoneal route inhibits the anaphylactic reaction and the death induced in guinea-pigs sensitized with horse serum.
# [3] = system: oedema of the rat's paw induced by dextran; assay: Antiphlogistic activity, oedema of the rat's paw induced by dextran; type: in vivo
# [4] = system: oedema of the rat's paw induced by carageenin; assay: Antiphlogistic activity, oedema of the rat's paw induced by carageenin; type: in vivo
# [5] = Acute toxicity (LD50), method of Lichtfield and Wilcoxon, mice; conditions: mouse, in vivo
# [6] = system: granulomatous reaction induced by the sub-cutaneous penetration of foreign bodies; assay: Experimental granuloma test; type: in vivo
# [7] = system: hepatic steatosis and hypercholesterolemia induced by Handler's steatogenic diet; assay: Anti-steatotic activity (Handler's steatogenic diet); type: in vivo; conditions: rats, 50 mg/kg daily
# Procedure: Administration of the test material to rats at a daily dosage of 50 mg/kg inhibits the hepatic steatosis and the hypercholesterolemia induced by Handler's steatogenic diet.
# [8] = Acute toxicity (LD50), method of Lichtfield and Wilcoxon, rats; conditions: rat, in vivo
# [9] = Chronic toxicity test, 3 months; type: in vivo, rats
# Excerpt: The chronic toxicity tests confirmed the low toxicity of the product.
# choleresis = assay: Choleretic activity; type: in vivo; conditions: rats
# [10] = system: hypercholesterolemia induced by Twin-Triton; assay: Hypocholesterolemic activity (Twin-Triton-induced hypercholesterolemia); type: in vivo; conditions: rats, 200 mg/kg Twin-Triton i.p.
smiles,measurement,setting,value
"CC(C)(Oc1cccc2ccccc12)C(=O)Nc1ccc(C(=O)O)cc1 [Compound 1, p-[α-(α-naphthoxy)isobutyramido]benzoic acid]",inhibition of experimental phlogistic reaction,[1],inhibits
same,inhibition of anaphylactic reaction and death,[2]; 50 mg/kg intraperitoneal,inhibits
same,inhibition of anaphylactic reaction and death,[2]; 60 mg/kg oral,inhibits
same,inhibition of paw oedema induced by dextran,[3],inhibits
same,inhibition of paw oedema induced by carageenin,[4],inhibits
same,LD50,"[5]; ip, intraperitoneal",395 mg/kg
same,LD50,[5]; oral,2500 mg/kg
same,inhibition of granulomatous reaction,[6],inhibits
same,inhibition of hepatic steatosis,[7],inhibits
same,inhibition of hypercholesterolemia,[7],inhibits
same,LD50,"[8]; ip, intraperitoneal",425 mg/kg
same,LD50,[8]; oral,2200 mg/kg
same,intolerance and toxicity,"[9]; 50 mg/kg, 3 months",did not induce any intolerance and any toxicity
same,"blood, glycemia, transaminases, urinary excretion and azotemia","[9]; 50 mg/kg, 3 months, treated rats, beginning and end of treatment",failed to disclose any significant change or pathological modification
same,chronic toxicity (overall),[9]; chronic toxicity tests,low toxicity
same,elimination of biliary pigments or cholesterol,choleresis,increase concerns the elimination of either the biliary pigments or cholesterol
same,choleresis,"choleresis; intraperitoneal, 20 mg/kg",significant increase of choleresis
same,choleresis,"choleresis; oral, 100 mg/kg",significant increase of choleresis
same,increase of the choleresis compared with dehydrocholic acid,choleresis; versus dehydrocholic acid,more substantial and more extended than that induced by dehydrocholic acid
same,inhibition of hypercholesterolemia,[10]; 100 mg/kg intraperitoneal,inhibits
same,inhibition of hypercholesterolemia,[10]; 300 mg/kg oral,inhibits
